Experimental data published in patent US10137102B2, “Oligomeric forms of 3-hydroxybutyrate” (Oulun Yliopisto, priority 2014, dated 2018).

Columns and labels:
[1] = test system: yeast GSH pathway deletion mutants gsh1Δ and gsh2Δ; format: cell-based, S. cerevisiae; details: FIG. 2, 2.5 mM H2O2, 65 μM FeCl3
Experimental: Yeast strains (gsh1Δ (YJL101c) and gsh2Δ (YOL049w); EUROSCARF) were streaked from glycerol stocks onto YEPD agar plates (1% w/v Bacto yeast extract; 2% w/v Bacto peptone; 2% w/v D-glucose; 2% w/v agar) and incubated at +30° C. for 48 h. Yeast pre-cultures were inoculated from the plates and grown in liquid SG minimal medium (0.67% w/v yeast nitrogen base without amino acids; 2% w/v glucose with appropriate supplements: uracil, 0.02 mg/ml; amino acids, 0.03 mg/ml) at +30° C. in orbital shaker with 180 rpm to stationary phase (1.0-1.2 OD600). Growth was measured spectrophotometrically at 600 nm (OD600) and the cell densities were adjusted to 1.0 OD600 before inoculation of the final density of 0.25 OD600 into each assay reaction.
To validate the alleviation of oxidative stress in living cells and to identify the cellular target proteins for hydroxyl radical scavenging in eukaryotic cells, a yeast deletion mutant bioassay was developed on the basis of HOSC assay (Moore et al. 2006). Hydroxyl radicals were generated under physiological pH (7.4) in Fenton-like Fe^3+/H2O2 reaction. The original assay settings were adjusted for yeast cells in phosphate buffered SG medium, and the pH and O2 levels were monitored by SENBIT® system (Vasala et al. 2006). The concentration of hydrogen peroxide was optimized to a sub-lethal level (2.5 mM) and the reaction was supplemented with appropriate amount of FeCl3 (0.0646 mM) to produce a constant flux of .OH radicals.
The total reaction volume was down-scaled to 1 ml, which made the assay suitable for the natural products low in quantity. […]
All treatments were pipetted in triplicate, and the experiment was repeated three times. Cell growth was monitored at +30° C. for 72 hours and Petri plates were scanned digitally to high-quality computer images after 48 and 72 hours. Hydroxyl radical-induced stress and the alleviation of stress by antioxidant compounds in various deletion mutant strains of S. cerevisiae were evaluated visually.

[2] = HOSC assay (fluorometric .OH scavenging capacity assay); format: biochemical; details: for hydroxyl radical scavenging activity (in words) / .OH scavengers, times better than ascorbic acid / .OH scavengers, times better than glutathione: FIG. 1; for hydroxyl radical scavenging activity (in words): compared with L-ascorbic acid, L-glutathione and 3-hydroxybutyric acid; for .OH scavengers, times better than ascorbic acid / .OH scavengers, times better than glutathione: HOSC assay under Fenton's reaction, against Trolox; for .OH scavengers, times better than ascorbic acid: comparator ascorbic acid; for .OH scavengers, times better than glutathione: comparator glutathione; for scavenging capacity, times better compared to 3-HB monomer, 3-hydroxybutyric acid (3-HBA): HOSC assay, comparator commercial 3-HBA
Experimental: HOSC Assay (Fluorometric .OH Scavenging Capacity Assay)
Assay reactions were prepared according to Moore et al. (2006) and analyzed in black 96-well polystyrene plates (FluoroNunc, Thermo Scientific) with a Victor3 multilabel plate reader (PerkinElmer, Turku, Finland). Each reaction mixture contained 170 μl of 9.28×10^−8 M fluorescein (FL) prepared in 75 mM sodium phosphate buffer (pH 7.4), 30 μl of blank or sample or standard, 40 μl of 0.1990 M H2O2, and 60 μl of 3.43 mM FeCl3, pipetted to the 96-well plate in same order. Trolox standards (20, 40, 60, 80, and 100 μM), control solutions of glutathione, vitamin C, 3-HB monomer (3-hydroxybutyric acid, 3-HBA) (Sigma-Aldrich, St. Louis, Mo.), and the 3-HB oligomer samples were freshly prepared in 50% acetone for each assay. Each reaction was pipetted onto the 96-well plate in triplicate. Fluorescence was measured at the excitation wavelength of 485 nm and the emission wavelength of 535 nm. Read time for each well was 0.1 s, and each plate was read once per minute for 3 h. Based on the area under the curve (AUC) of the Trolox concentrations and the net area under the fluorescein decay curve (Ou et al. 2001), the relative HOSC values were calculated by using the regression equation for the pure compounds. Values were expressed as Trolox equivalents (TE), where one micromole of TE corresponds to one micromole of sample. The experiment was repeated three times.
Calculation of Area Under Curve (AUC) Values: AUC=0.5+f1/f0+f2/f0+f3/f0+ . . . +fi−1/f0+0.5(fi/f0) f0=the initial fluorescence reading at 0 min fi=the final fluorescence reading Calculation of Relative HOSC Values for Pure Compounds: [(AUCsample−AUCblank)/(AUCTrolox−AUCblank)]×(Molarity of Trolox/Molarity of sample)] Iron-Catalyzed Hydroxyl Radical Formation by Haber-Weiss Driven Fenton Reaction (Liochev 1999, Kehrer 2000): Fe^3++O.^2−→Fe^2++O2 (1) Fe^2++H2O2→Fe^3++OH^−+OH.(Fenton reaction) (2)
The Net Reaction: O.^2−+H2O2→O2+OH^−+OH. (3)
Fluorometric .OH scavenging capacity (HOSC) assays for 3-HB mono-, di- and trimers (molecules of general formula 1, wherein n is 1 and 2, respectively), along with glutathione and ascorbic acid was performed. […] Oligomers of 3-HB having a chain length longer than four units had low antioxidant activity.

[3] = test system: Shoot tips of Scots pine; assay: Viability assay on pine shoot tips; format: cell-based, Pinus sylvestris L.; details: FIG. 3; medium including molecules (1) and (2); after five weeks; control shoot tip dead
Experimental: Viability Assay on Pine Shoot Tips Shoot tips (n=9-13) of Scots pine (Pinus sylvestris L.) were collected from young (>10 years) trees and surface-sterilized in 70% ethanol for 1 min and in 6% Ca(ClO)2 for 20 min, and rinsed thoroughly three times with sterile water. After rinsing in sterile water, the shoot tips (buds) were aseptically peeled in a laminar flow hood and placed on the media. The pine shoot tips were grown in 8/16 h photoperiod at +25±1° C. in the presence and absence of molecules of general formula I, wherein n is from 2 to 10. The viability of the pine tissue was assessed for up to 6 weeks visually (FIG. 3) and by 1% (w/v) acetocarmine staining. The viability on each fraction was recorded as percentage of live buds. The experiment was twice with each oligomer (mono- to decamer) on each Petri plate containing 18-31 pine shoot tips.

SMILES | reversal of hypersensitivity of yeast mutants to hydroxyl radical stress (in words) [1] | hydroxyl radical scavenging activity (in words) [2] | .OH scavengers, times better than ascorbic acid [2] | .OH scavengers, times better than glutathione [2] | scavenging capacity, times better compared to 3-HB monomer, 3-hydroxybutyric acid (3-HBA) [2] | antioxidant capacity against hydroxyl radicals (in words) ([2]; compared with 3-hydroxybutyric acid or ascorbic acid) | state of Scots pine shoot tip (in words) [3]
N[C@@H](CCC(=O)N[C@@H](CS)C(=O)NCC(=O)O)C(=O)O [glutathione, reference compound] | reversal of hypersensitivity |  |  |  |  |  | 
COC(=O)CC(C)OC(=O)CC(C)O (centres unmarked) [Compound 1, 3-hydroxybutyrate methyl ester dimer] | reversal of hypersensitivity | significantly better | 10 times | 3 times | 10 times | more than tenfold higher | alive
COC(=O)CC(C)OC(=O)CC(C)OC(=O)CC(C)O (centres unmarked) [Compound 2] | reversal of hypersensitivity | significantly better | 10 times | 3 times | 10 times |  | alive
